Legend:
[1] = tested on: anti-HA (influenza) IgG antibodies; assay: ELISA for serum anti-HA IgG after single oral dose of influenza vaccine with delivery agent; type: in vivo, BALB/c mice; conditions: single oral dose 15 μg influenza vaccine A/Johannesburg/39/94 (H3N2) + 500 mg/kg delivery agent
Experimental: Ten BALB/c mice were administered a single oral dose of 15 μg of influenza antigen [influenza vaccine A/Johannesburg/39/94 (H3N2)] per mouse with 500 mg/kg of E352.
1. Coat plates with HA antigen, 10 μg/mL in carbonate buffer.
3. Block with Superblock™ or 1/10 diluted Bovine Serum Albumin (BSA).
4. Add 100 μL per well of diluent (Superblock™ or 1/15 diluted BSA) to all except the top row.
5. In the first row, add 150 μL per well of 1/100 diluted test serum in duplicate and serially dilute 3× down the plate. Leave 2 empty wells as background.
6. Incubate 2 hours at room temperature.
8. To each well, add 100 μl of IgG isotype-specific anti-mouse alkaline-phosphatase conjugated antibody (diluted with 4% PEG 6000).20. Incubate overnight at 4/C.
10. Add 100 μL per well of p-nitrophenyl phosphate (pNPP) substrate solution and incubate in the dark with shaking for 30 minutes.
11. Read and record OD405 after subtracting the background absorbance.

[2] = tested on: Experimental Autoimmune Encephalomyelitis (EAE)
Experimental: Two days after the (last) oral dose, all groups were challenged in the footpad with 0.05 mg of MBP emulsified with Complete Freund's Adjuvant containing Mycobacterium tuberculosis H37Ra, 4 mg/ml. Clinical signs of disease were observed starting on Day 11 after the challenge and rated on a scale of 0 (no disease) to 5 (death).

[3] = single dose MBP + delivery agent versus one or five doses of MBP alone

With `O=C(O)CCCc1ccc(NC(=O)c2ccccc2O)cc1` [E352, 4-[4-(N-salicyloyl)]aminophenyl butyric acid] the “serum anti-HA IgG titer relative to control fed only influenza antigen” value [1] was “significantly suppressed the production of anti-influenza antibodies”, the “Mean Disease Index per group (highest mean score multiplied by the duration of symptoms)” value [2, 3] was “suppressed these disease parameters significantly” and the “mean Maximal Score per group” value [2, 3] was “suppressed these disease parameters significantly”. For the same compound, the “mean day of onset of paralysis” value ([2]; single oral dose 1.0 mg MBP alone or with delivery agent, day after challenge) was 16 days and the “clinical disease (Mean Clinical Score) of EAE” value ([2]; single oral dose 1.0 mg MBP with delivery agent, footpad challenge 0.05 mg MBP/CFA, scale 0 to 5) was “suppression of clinical disease”.
